Conditions: polymer system of polydimethylsiloxane vinyl terminated at various viscosity and a range of platinum-mono, di, tri and/or tetramethyldisiloxane complex
From the text: The composition for the example may be as follow: polymer part: polydimethylsiloxane, vinyldimethyl terminated, any viscosity; and/or polydimethylsiloxane, vinylmonomethyl terminated, any viscosity. The cross-linker part: polydimethylsiloxane, any viscosity; and or polymonomethylsiloxane, any viscosity. Platinum catalyst part and/or cross-linker part: platinum; and/or platinum-divinyltetramethyldisiloxane complex in xylene, 2-3% Pt; and/or platinum-divinyltetramethyldisiloxane complex in vinyl terminated polydimethylsiloxane, 2-3% Pt; and/or platinum-divinyltetramethyldisiloxane complex in vinyl terminated polydimethylsiloxane, ˜1% Pt; platinum-Cyclovinylmethylsiloxane complex, 2-3% Pt in cyclic vinyl methyl siloxane.
These components may be combined in different ratios to make the polymer. […] The amount of vinyl siloxane cross-linker may determine the rate of the drug release and diffusivity of the polymer to the drug.

With CC(=O)O[C@H]1C(=O)[C@@]2(C)[C@H]([C@H](OC(=O)c3ccccc3)[C@]3(O)C[C@H](OC(=O)[C@H](O)[C@@H](NC(=O)c4ccccc4)c4ccccc4)C(C)=C1C3(C)C)[C@]1(OC(C)=O)CO[C@@H]1C[C@@H]2O [paclitaxel] the release profile was “acceptable”.

— patent US8002740B2, “Devices for maintaining patency of surgically created channels in tissue” (Broncus Technologies, Inc., priority 2003, dated 2011)
